Measured values from patent US12390423B2 (priority 2019, dated 2025).

Tests used:
[1] = Complete blood count and plasma FFA/TAG in DIO mice; assay type: in vivo
Protocol: Complete blood count with differential (CBC w/diff) analysis was done on 500 μL of whole blood by the animal health laboratory at the University of Guelph. Plasma insulin, FFAs, and triacylglycerols (TAGs) were measured using a rat/mouse insulin ELISA kit (Millipore, Rat/Mouse Insulin Detection kit), FFA fluorometric assay kit (Cayman, MI, USA), and the TAG colorimetric assay kit (Cayman, MI, USA), respectively. Manufacturer's protocols were followed for all kits.

INS-1 (832/13) cells [2] = assay: Fatty acid oxidation ([1-14C]-palmitate) in INS-1 (832/13) cells; assay type: cell-based, rat; details: 25 μM AvoB, 0.5 mM palmitate-BSA/1 mM L-carnitine, 24 h
Protocol: FAO in cell lines was determined using established methods. […] [1-^14C]-palmitate was prepared and applied to cells as follows: purchased stock supplied in ethanol (PerkinElmer, MA, USA) was dried in vacuo and then re-suspended in a solution containing unlabeled carrier in BSA to yield a mixture of 7% BSA [w/v], 2.5 mM palmitate with [1-^14C]-palmitate at a final concentration of 10 μCi/mL. Following a 16 hour incubation at 37° C., the solution containing radiolabeled palmitate was diluted with respective serum free cell culture media (low glucose RPMI media for INS-1 (832/13) cells and low glucose DMEM for C2C12 myotubes) containing 1 mM L-carnitine to a final concentration of 0.3% BSA, 100 μM palmitate, and 0.4 μCi/mL [1-^14C]-palmitate. Following incubation of treated cells with [1-^14C]-palmitate, 400 μL of well media was transferred to acidification vials containing perchloric acid and capped with CO2 filter traps impregnated with 1M NaOH. […] The CO2 trap was transferred to scintillation vials containing 4 mL of scintillation fluid and complete FAO was quantified using a Tri-Carb 2910 TR liquid scintillation analyzer (PerkinElmer). The amount of radioactivity in the media was also determined after pelleting cells and debris (14,000×g, 10 min); this quantified acid soluble metabolites (ASMs), an indirect measure of incomplete FAO.

INS-1 (832/13) cells [3] = assay: Cellular ATP content in INS-1 (832/13) cells; assay type: cell-based, rat; details: 25 μM AvoB, palmitate challenged, 24 h
Protocol: Total cellular ATP content was determined using the ATP bioluminescent assay kit (Calbiochem, 119107). Briefly, cells were seeded in white walled 96-well plates (1.2×10^4 cells/well for INS-1 and 2×10^4 cells/well for C2C12) and treated for 24 h (C2C12 cells were differentiated for 5 days prior to treatments whereas INS-1 cells were treated 24 h after seeding). After treatment, culture media was removed, and cells were lysed with nucleotide releasing buffer with gentle shaking for 5 min. ATP monitoring enzyme was then added to cell lysates and plates and luminescence was read in a Biotek Synergy HT spectrophotometer (Biotek; Winooski, VT).

[4] = system: AMPK activation and mitochondrial biogenesis; assay: Immunoblotting (pAMPKα, PGC-1α) and NAO mitochondrial mass in INS-1 (832/13) cells; assay type: cell-based, rat; details: 25 μM AvoB, 24 h
Protocol: For all ROS studies, INS-1 (832/13) cells and C2C12 myotubes were treated with or without palmitate and FAO inhibitors for 24 h in low glucose cell culture media as described for the FAO assay. After treatment, cells were trypsinized and re-suspended in PBS containing 5 μM of the fluorescent dye MitoSOX® (Molecular Probes, Invitrogen) and allowed to incubate for 5-15 minutes in a humidified atmosphere containing 5% CO2 at 37° C. Cells were then washed in PBS, placed in a 96 well plate and fluorescence was measured by flow cytometry. ROS was quantified by normalizing the mean fluorescence values of live gated cells to vehicle control. Mitochondrial membrane potential (MMP) in INS-1 (832/13) and C2C12 myotubes was measured using the cationic fluorescent dye JC-1 (Molecular Probes). […] JC-1 fluoresces green in the cytosol where it exists as a monomer, after entering the mitochondria JC-1 monomers form J aggregates and fluoresce red, thus the red/green fluorescence ratio is used to determine MMP. […] Cells were then washed in PBS, placed in a 96 well plate and fluorescence was measured by flow cytometry. MMP was quantified by normalizing the mean fluorescence values of live gated cells to vehicle control. […] Cells were treated, washed and collected as described and incubated with 0.35 μM NAO and green fluorescence was measured using flow cytometry. […]

[5] = ad libitum HFD mice, AvoB 100 mg/kg b.w. twice weekly, vs control-HFD, endpoint

avocatin B [AvoB]
Blood markers of toxicity (CBC w/diff) ([1]; HFD mice, AvoB 100 mg/kg b.w. twice weekly for 5 weeks, study endpoint): no effect on blood markers of toxicity | Plasma free fatty acids (FFA) [1, 5]: increased plasma levels of FFA | Plasma triacylglycerols (TAG) [1, 5]: increased | Complete FAO ([1-14C]-palmitate oxidation to CO2) (INS-1 (832/13) cells [2]): inhibited complete FAO | Total cellular ATP content (INS-1 (832/13) cells [3]): restores total cellular ATP content | AMPK activation (pAMPKα-Thr172) [4]: independent of AMP-activated protein kinase (AMPK) activation | Mitochondrial biogenesis (PGC-1α protein, NAO dye) [4]: independent
